Experimental data as given in ChEMBL document CHEMBL4219059, “Synthesis and biological evaluation of cyclopeptide GG-8-6 and its analogues as anti-hepatocellular carcinoma agents” (Bioorg Med Chem, 2018).
pIC50: −log10 of the molar value. Active and inactive are the calls of the source. The calls are words filed in the database; no cut-off is given here. Peptide text beside a SMILES is read from it.

Legend:
[1] = system: SMMC-7721; test: Antiproliferative activity against human SMMC7721 cells after 24 hrs by MTT assay; format: functional, cell-based; settings: SMMC-7721, 24 h
[2] = system: HepG2; test: Antiproliferative activity against human HepG2 cells after 24 hrs by MTT assay; format: functional, cell-based; settings: HepG2, 24 h
[3] = system: SMMC-7721; test: Cell cycle arrest in human SMMC7721 cells assessed as G2/M phase accumulation at 30 uM after 24 hrs by propidium iodide staining based flow cytometry relative to control; format: functional
[4] = system: SMMC-7721; test: Induction of apoptosis in human SMMC7721 cells assessed as increase in cleaved caspase-3 protein expression after 24 hrs by Western blot method; format: functional, cell-based
[5] = system: SMMC-7721; test: Cell cycle arrest in human SMMC7721 cells assessed as G2/M phase accumulation at 10 uM after 24 hrs by propidium iodide staining based flow cytometry relative to control; format: functional
[6] = system: Mus musculus; test: Toxicity in Balb/c nude mouse xenografted with human SMMC7721 cells assessed as body weight level at 40 mg/kg, ip for 32 days (reference value: 25.4 +/- 1.8 g); format: organism-based; settings: in vivo, 768 h
[7] = system: SMMC-7721; test: Induction of morphological changes in tumor of human SMMC7721 cells xenografted Balb/c nude mouse assessed as appearance of shrunken nuclei at 40 mg/kg, ip for 32 days by hematoxylin/eosin staining based microscopic analysis; format: functional, organism-based
[8] = system: SMMC-7721; test: In vivo induction of apoptosis in human SMMC7721 cells xenografted in Balb/c nude mouse assessed as activation of caspase-3 dosed intraperitoneally for 32 days by IHC analysis; format: functional, organism-based
[9] = system: SMMC-7721; test: Induction of apoptosis in human SMMC7721 cells assessed as increase in cleaved caspase-9 protein expression after 24 hrs by Western blot method; format: functional, cell-based
[10] = system: SMMC-7721; test: Induction of apoptosis in human SMMC7721 cells assessed as early apoptotic cells at 20 uM after 24 hrs by Annexin V-FITC/propidium iodide staining based flow cytometry (reference value: 2%); format: functional
[11] = system: SMMC-7721; test: Induction of apoptosis in human SMMC7721 cells assessed as early apoptotic cells at 30 uM after 24 hrs by Annexin V-FITC/propidium iodide staining based flow cytometry (reference value: 2%); format: functional
[12] = system: SMMC-7721; test: Induction of apoptosis in human SMMC7721 cells assessed as early apoptotic cells at 10 uM after 24 hrs by Annexin V-FITC/propidium iodide staining based flow cytometry (reference value: 2%); format: functional
[13] = system: Mus musculus; test: Toxicity in Balb/c nude mouse xenografted with human SMMC7721 cells assessed as body weight level at 8 mg/kg, ip for 32 days (reference value: 25.4 +/- 1.8 g); format: organism-based; settings: in vivo, 768 h
[14] = system: SMMC-7721; test: Induction of apoptosis in human SMMC7721 cells assessed as increase in cleaved caspase-8 protein expression after 24 hrs by Western blot method; format: functional, cell-based
[15] = system: SMMC-7721; test: Induction of morphological changes in tumor of human SMMC7721 cells xenografted Balb/c nude mouse assessed as reduction in number of nuclei at 40 mg/kg, ip for 32 days by hematoxylin/eosin staining based microscopic analysis; format: functional, organism-based
[16] = system: SMMC-7721; test: Induction of apoptosis in human SMMC7721 cells assessed as increase in cleaved PARP protein expression after 24 hrs by Western blot method; format: functional, cell-based
[17] = system: SMMC-7721; test: Antitumor activity against human SMMC7721 cells xenografted in Balb/c nude mouse assessed as tumor growth inhibition at 16 mg/kg, ip for 32 days relative to control; format: functional; settings: SMMC-7721, ip, 768 h, read-out: TGI
[18] = system: SMMC-7721; test: Induction of apoptosis in human SMMC7721 cells assessed as chromatin condensation at 10 to 30 uM after 24 hrs by DAPI staining based laser confocal microscopy; format: functional, cell-based
[19] = system: SMMC-7721; test: Induction of morphological changes in tumor of human SMMC7721 cells xenografted Balb/c nude mouse induction of nuclei and cytoplasm non-uniform distribution at 40 mg/kg, ip for 32 days by hematoxylin/eosin staining based microscopic analysis; format: functional, organism-based
[20] = system: SMMC-7721; test: Cell cycle arrest in human SMMC7721 cells assessed as G2/M phase accumulation at 20 uM after 24 hrs by propidium iodide staining based flow cytometry relative to control; format: functional
[21] = system: SMMC-7721; test: Induction of apoptosis in human SMMC7721 cells assessed as late apoptotic cells at 10 uM after 24 hrs by Annexin V-FITC/propidium iodide staining based flow cytometry (reference value: 0.7%); format: functional
[22] = system: SMMC-7721; test: Antitumor activity against human SMMC7721 cells xenografted in Balb/c nude mouse assessed as tumor growth inhibition at 8 mg/kg, ip for 32 days relative to control; format: functional; settings: SMMC-7721, ip, 768 h, read-out: TGI
[23] = system: SMMC-7721; test: Antitumor activity against human SMMC7721 cells xenografted in Balb/c nude mouse assessed as tumor growth inhibition at 40 mg/kg, ip for 32 days relative to control; format: functional; settings: SMMC-7721, ip, 768 h, read-out: TGI
[24] = system: SMMC-7721; test: Induction of apoptosis in human SMMC7721 cells assessed as late apoptotic cells at 20 uM after 24 hrs by Annexin V-FITC/propidium iodide staining based flow cytometry (reference value: 0.7%); format: functional
[25] = system: Mus musculus; test: Toxicity in Balb/c nude mouse xenografted with human SMMC7721 cells assessed as body weight level at 16 mg/kg, ip for 32 days (reference value: 25.4 +/- 1.8 g); format: organism-based; settings: in vivo, 768 h
[26] = system: SMMC-7721; test: Antitumor activity against human SMMC7721 cells xenografted in Balb/c nude mouse assessed as tumor growth inhibition dosed intraperitoneally for 32 days; format: functional, organism-based
[27] = system: SMMC-7721; test: Induction of apoptosis in human SMMC7721 cells assessed as late apoptotic cells at 30 uM after 24 hrs by Annexin V-FITC/propidium iodide staining based flow cytometry (reference value: 0.7%); format: functional
[28] = system: SMMC-7721; test: In vivo induction of apoptosis in human SMMC7721 cells xenografted in Balb/c nude mouse at 8 to 40 mg/kg, ip for 32 days by TUNEL assay; format: functional, organism-based
[29] = system: SMMC-7721; test: Cell cycle arrest in human SMMC7721 cells assessed as G2/M phase accumulation at 2.5 uM after 24 hrs by propidium iodide staining based flow cytometry relative to control; format: functional
[30] = system: SMMC-7721; test: Induction of apoptosis in human SMMC7721 cells assessed as chromatin condensation at 0.2 uM after 24 hrs by DAPI staining based laser confocal microscopy; format: functional, cell-based
[31] = system: SMMC-7721; test: Induction of apoptosis in human SMMC7721 cells assessed as early apoptotic cells at 0.2 uM after 24 hrs by Annexin V-FITC/propidium iodide staining based flow cytometry (reference value: 2%); format: functional
[32] = system: SMMC-7721; test: Induction of apoptosis in human SMMC7721 cells assessed as late apoptotic cells at 0.2 uM after 24 hrs by Annexin V-FITC/propidium iodide staining based flow cytometry (reference value: 0.7%); format: functional

CC(C)C[C@@H]1NC(=O)[C@H](C)NC(=O)[C@@H]2CCCN2C(=O)[C@H](CC(C)C)NC(=O)[C@H](C(C)C)NC(=O)[C@H](CC(C)C)NC(=O)[C@H](C(C)C)NC(=O)[C@H](CC(C)C)NC(=O)[C@H](CC(C)C)NC1=O (cyclo(ALLLVLVLP))
pIC50 [1]: 4.44
pIC50 [2]: 4.25

CC[C@H](C)[C@@H]1NC(=O)[C@@H]2CCCN2C(=O)[C@H](CC(C)C)NC(=O)[C@H](C(C)C)NC(=O)[C@H](CC(C)C)NC(=O)[C@H](C(C)C)NC(=O)[C@H](CC(C)C)NC(=O)[C@H](CC(C)C)NC(=O)[C@H](C)NC1=O (cyclo(ALLVLVLPI))
pIC50 [1]: 4.53
pIC50 [2]: < 4.00

CC[C@H](C)[C@@H]1NC(=O)[C@@H]2CCCN2C(=O)[C@H](CC(C)C)NC(=O)[C@H](C)NC(=O)[C@H](CC(C)C)NC(=O)[C@H](C(C)C)NC(=O)[C@H](CC(C)C)NC(=O)[C@H](CC(C)C)NC(=O)[C@H](CC(C)C)NC1=O (cyclo(ALPILLLVL))
pIC50 [1]: 4.52
pIC50 [2]: 4.52

CC[C@H](C)[C@@H]1NC(=O)[C@@H]2CCCN2C(=O)[C@H](CC(C)C)NC(=O)[C@H](C(C)C)NC(=O)[C@H](CC(C)C)NC(=O)[C@H](C)NC(=O)[C@H](CC(C)C)NC(=O)[C@H](CC(C)C)NC(=O)[C@H](CC(C)C)NC1=O (cyclo(ALVLPILLL))
pIC50 [1]: 4.32
pIC50 [2]: 4.39

CC[C@H](C)[C@@H]1NC(=O)[C@@H]2CCCN2C(=O)[C@H](CC(C)C)NC(=O)[C@H](C(C)C)NC(=O)[C@H](CC(C)C)NC(=O)[C@H](C(C)C)NC(=O)[C@H](CC(C)C)NC(=O)[C@H](C)NC(=O)[C@H](CC(C)C)NC1=O (cyclo(ALVLVLPIL))
pIC50 [1]: 4.37
pIC50 [2]: < 4.00

CC[C@H](C)[C@@H]1NC(=O)[C@@H]2CCCN2C(=O)[C@H](C)NC(=O)[C@H](C(C)C)NC(=O)[C@H](CC(C)C)NC(=O)[C@H](C(C)C)NC(=O)[C@H](CC(C)C)NC(=O)[C@H](CC(C)C)NC(=O)[C@H](CC(C)C)NC1=O (cyclo(APILLLVLV))
pIC50 [1]: 4.31
pIC50 [2]: 4.40

CC[C@H](C)[C@@H]1NC(=O)[C@@H]2CCCN2C(=O)[C@H](CC(C)C)NC(=O)[C@H](C(C)C)NC(=O)[C@H](C)NC(=O)[C@H](C(C)C)NC(=O)[C@H](CC(C)C)NC(=O)[C@H](CC(C)C)NC(=O)[C@H](CC(C)C)NC1=O (cyclo(AVLPILLLV))
pIC50 [1]: 4.41
pIC50 [2]: 4.41

CC[C@H](C)[C@@H]1NC(=O)[C@@H]2CCCN2C(=O)[C@H](CC(C)C)NC(=O)[C@H](C(C)C)NC(=O)[C@H](CC(C)C)NC(=O)[C@H](C(C)C)NC(=O)[C@H](C)NC(=O)[C@H](CC(C)C)NC(=O)[C@H](CC(C)C)NC1=O (cyclo(AVLVLPILL))
pIC50 [1]: 4.25
pIC50 [2]: 4.50

CC[C@H](C)[C@@H]1NC(=O)[C@@H]2CCCN2C(=O)[C@H](CC(C)C)NC(=O)[C@H](C(C)C)NC(=O)[C@H](CC(C)C)NC(=O)[C@H](C(C)C)NC(=O)[C@H](CC(C)C)NC(=O)[C@H](CC(C)C)NC(=O)[C@H](CC(C)C)NC1=O (cyclo(ILLLVLVLP))
Activity [3]: 12%
Activity [4]: Dose-dependent effect
Activity [5]: 5.9%
Activity [6]: 21.1 g
Activity [7]: Active
Activity [8]: Dose-dependent effect
Activity [9]: Dose-dependent effect
Activity [10]: 36.6 - 38.6%
pIC50 [1]: 5.20
Activity [11]: 84.5 - 86.5%
Activity [12]: 1.6 - 3.6%
Activity [13]: 22.2 g
Activity [14]: Dose-dependent effect
Activity [15]: Active
Activity [16]: Dose-dependent effect
inhibition in vivo at 16 mg/kg [17]: 57%
Activity [18]: Active
Activity [19]: Active
Activity [20]: 9.6%
Activity [21]: 0.4%
inhibition in vivo at 8 mg/kg [22]: 26.1%
inhibition in vivo at 40 mg/kg [23]: 67.9%
Activity [24]: 2.8%
Activity [25]: 22.7 g
TGI [26]: Dose-dependent effect
pIC50 [2]: 4.91
Activity [27]: 2.6%
Activity [28]: Dose-dependent effect

CC[C@H](C)[C@@H]1NC(=O)[C@@H]2CCCN2C(=O)[C@H](CC(C)C)NC(=O)[C@H](C(C)C)NC(=O)[C@H](CC(C)C)NC(=O)[C@H](C(C)C)NC(=O)[C@H](CC(C)C)NC(=O)[C@H](CC(C)C)NC1=O (cyclo(ILLVLVLP))
pIC50 [1]: 4.13
pIC50 [2]: 4.29

CC[C@H](C)[C@@H]1NC(=O)[C@@H]2CCCN2C(=O)[C@H](CC(C)C)NC(=O)[C@H](C(C)C)NC(=O)[C@H](CC(C)C)NC(=O)[C@H](C(C)C)NC(=O)[C@H](CC(C)C)NC1=O (cyclo(ILVLVLP))
pIC50 [1]: < 4.00
pIC50 [2]: < 4.00

CC[C@H](C)[C@@H]1NC(=O)[C@@H]2CCCN2C(=O)[C@H](C(C)C)NC(=O)[C@H](CC(C)C)NC(=O)[C@H](C(C)C)NC1=O (cyclo(IVLVP))
pIC50 [1]: < 4.00
pIC50 [2]: < 4.00

COc1cc([C@@H]2c3cc4c(cc3[C@@H](O[C@@H]3O[C@@H]5CO[C@@H](C)O[C@H]5[C@H](O)[C@H]3O)[C@H]3COC(=O)[C@H]23)OCO4)cc(OC)c1O [ETOPOSIDE]
Activity [29]: 44.9%

CC(=O)O[C@H]1C(=O)[C@@]2(C)[C@H]([C@H](OC(=O)c3ccccc3)[C@]3(O)C[C@H](OC(=O)[C@H](O)[C@@H](NC(=O)c4ccccc4)c4ccccc4)C(C)=C1C3(C)C)[C@]1(OC(C)=O)CO[C@@H]1C[C@@H]2O [PACLITAXEL]
Activity [30]: Active
Activity [31]: 54.7 - 56.7%
Activity [32]: 3.4%
